Test results reported in patent publication EP1517674B1, “PREPARATIONS FOR THE INTRANASAL APPLICATION OF SELECTED CGRP A[…] FROM AMINO ACIDS AND A METHOD FOR THEIR PRODUCTION” (Boehringer Ingelheim Pharma GmbH & Co. KG, priority 2002, dated 2003).

Assay: Stability test of higher-concentration nasal spray solutions (hydrochloride in aqueous solution, packed in aluminium pouch)
Format: physicochemical
Settings: for Gehalt an Wirkstoff (A): as free base
Description: Stabilitätsprüfung höher konzentrierter erfindungsgemäßer Nasalspray-Lösungen:
Die nachfolgende Tabelle zeigt, dass die oxidative Zersetzung des nachstehend aufgeführten Wirkstoffs
Die zum Teil (insbesondere bei 40°C) hohe Gesamtzersetzung beruht auf Hydrolyse.
Der in der Tabelle 1 angegebene Gehalt an Wirkstoff (A) bezieht sich jeweils auf die ursprünglich eingewogene freie Base.

[1] = Wirkstoff-Konzentration 15 %, 3-Monats-Wert, 25°C, 129600 min
[2] = Wirkstoff-Konzentration 15 %, 3-Monats-Wert, 40°C, 129600 min
[3] = Wirkstoff-Konzentration 15 %, 6-Monats-Wert, 25°C, 259200 min
[4] = Wirkstoff-Konzentration 15 %, 6-Monats-Wert, 40°C, 259200 min
[5] = Wirkstoff-Konzentration 15 %, 6-Wochen-Wert, 25°C, 60480 min
[6] = Wirkstoff-Konzentration 15 %, 6-Wochen-Wert, 40°C, 60480 min
[7] = Wirkstoff-Konzentration 15 %, Anfangswert
[8] = Wirkstoff-Konzentration 20 %, 3-Monats-Wert, 25°C, 129600 min
[9] = Wirkstoff-Konzentration 20 %, 3-Monats-Wert, 40°C, 129600 min
[10] = Wirkstoff-Konzentration 20 %, 6-Monats-Wert, 25°C, 259200 min
[11] = Wirkstoff-Konzentration 20 %, 6-Monats-Wert, 40°C, 259200 min
[12] = Wirkstoff-Konzentration 20 %, 6-Wochen-Wert, 25°C, 60480 min
[13] = Wirkstoff-Konzentration 20 %, 6-Wochen-Wert, 40°C, 60480 min
[14] = Wirkstoff-Konzentration 20 %, Anfangswert
[15] = Wirkstoff-Konzentration 30 %, 3-Monats-Wert, 25°C, 129600 min
[16] = Wirkstoff-Konzentration 30 %, 3-Monats-Wert, 40°C, 129600 min
[17] = Wirkstoff-Konzentration 30 %, 6-Monats-Wert, 25°C, 259200 min
[18] = Wirkstoff-Konzentration 30 %, 6-Monats-Wert, 40°C, 259200 min
[19] = Wirkstoff-Konzentration 30 %, 6-Wochen-Wert, 25°C, 60480 min
[20] = Wirkstoff-Konzentration 30 %, 6-Wochen-Wert, 40°C, 60480 min
[21] = Wirkstoff-Konzentration 30 %, Anfangswert

NCCCC[C@H](NC(=O)[C@@H](Cc1cc(Br)c(O)c(Br)c1)NC(=O)N1CCC(N2Cc3ccccc3NC2=O)CC1)C(=O)N1CCN(c2ccncc2)CC1 [(A), 1-[N^2-[3,5-Dibrom-N-[[4-(3,4-dihydro-2(1 H)-oxochinazolin-3-yl)-1-piperidinyl]-carbonyl]-D-tyrosyl]-L-lysyl]-4-(4-pyridinyl)-piperazin]
Gesamt-Zersetzung [1]: 1,69%
Zersetzung durch Oxidation [1]: 0,64%
Gehalt an Wirkstoff (A) (Wirkstoff-Konzentration 15 %, 3-Monats-Wert, 25°C): 147,7mg/ml
Gesamt-Zersetzung [2]: 8,22%
Zersetzung durch Oxidation [2]: 0,55%
Gehalt an Wirkstoff (A) (Wirkstoff-Konzentration 15 %, 3-Monats-Wert, 40°C): 139,4mg/ml
Gesamt-Zersetzung [3]: 2,07%
Zersetzung durch Oxidation [3]: 0,82%
Gehalt an Wirkstoff (A) (Wirkstoff-Konzentration 15 %, 6-Monats-Wert, 25°C): 147,7mg/ml
Gesamt-Zersetzung [4]: 15.33%
Zersetzung durch Oxidation [4]: 0,78%
Gehalt an Wirkstoff (A) (Wirkstoff-Konzentration 15 %, 6-Monats-Wert, 40°C): 131,7mg/ml
Gesamt-Zersetzung [5]: 1,60%
Zersetzung durch Oxidation [5]: 0,72%
Gehalt an Wirkstoff (A) (Wirkstoff-Konzentration 15 %, 6-Wochen-Wert, 25°C): 148,1mg/ml
Gesamt-Zersetzung [6]: 4,46%
Zersetzung durch Oxidation [6]: 0,52%
Gehalt an Wirkstoff (A) (Wirkstoff-Konzentration 15 %, 6-Wochen-Wert, 40°C): 142,3mg/ml
Gesamt-Zersetzung [7]: 1,23%
Zersetzung durch Oxidation [7]: 0,59%
Gehalt an Wirkstoff (A) [7]: 148,6mg/ml
Gesamt-Zersetzung [8]: 1,50%
Zersetzung durch Oxidation [8]: 0,53%
Gehalt an Wirkstoff (A) (Wirkstoff-Konzentration 20 %, 3-Monats-Wert, 25°C): 202,8mg/ml
Gesamt-Zersetzung [9]: 8,23%
Zersetzung durch Oxidation [9]: 0,47%
Gehalt an Wirkstoff (A) (Wirkstoff-Konzentration 20 %, 3-Monats-Wert, 40°C): 191,4mg/ml
Gesamt-Zersetzung [10]: 1,99%
Zersetzung durch Oxidation [10]: 0,77%
Gehalt an Wirkstoff (A) (Wirkstoff-Konzentration 20 %, 6-Monats-Wert, 25°C): 201,8m/ml
Gesamt-Zersetzung [11]: 14,61%
Zersetzung durch Oxidation [11]: 0,74%
Gehalt an Wirkstoff (A) (Wirkstoff-Konzentration 20 %, 6-Monats-Wert, 40°C): 182,8mg/ml
Gesamt-Zersetzung [12]: 1,09%
Zersetzung durch Oxidation [12]: 0,54%
Gehalt an Wirkstoff (A) (Wirkstoff-Konzentration 20 %, 6-Wochen-Wert, 25°C): 198,7mg/ml
Gesamt-Zersetzung [13]: 3,97%
Zersetzung durch Oxidation [13]: 0,55%
Gehalt an Wirkstoff (A) (Wirkstoff-Konzentration 20 %, 6-Wochen-Wert, 40°C): 192,1mg/ml
Gesamt-Zersetzung [14]: 1,27%
Zersetzung durch Oxidation [14]: 0,56%
Gehalt an Wirkstoff (A) [14]: 197,9mg/ml
Gesamt-Zersetzung [15]: 1,48%
Zersetzung durch Oxidation [15]: 0,60%
Gehalt an Wirkstoff (A) (Wirkstoff-Konzentration 30 %, 3-Monats-Wert, 25°C): 270 mg/mL
Gesamt-Zersetzung [16]: 7.81%
Zersetzung durch Oxidation [16]: 0,59%
Gehalt an Wirkstoff (A) (Wirkstoff-Konzentration 30 %, 3-Monats-Wert, 40°C): 260 mg/mL
Gesamt-Zersetzung [17]: 2,04%
Zersetzung durch Oxidation [17]: 0,91%
Gehalt an Wirkstoff (A) (Wirkstoff-Konzentration 30 %, 6-Monats-Wert, 25°C): 273 mg/mL
Gesamt-Zersetzung [18]: 13,36%
Zersetzung durch Oxidation [18]: 0,84%
Gehalt an Wirkstoff (A) (Wirkstoff-Konzentration 30 %, 6-Monats-Wert, 40°C): 246 mg/mL
Gesamt-Zersetzung [19]: 1,19%
Zersetzung durch Oxidation [19]: 0,62%
Gehalt an Wirkstoff (A) (Wirkstoff-Konzentration 30 %, 6-Wochen-Wert, 25°C): 264 mg/mL
Gesamt-Zersetzung [20]: 3,95%
Zersetzung durch Oxidation [20]: 0,58%
Gehalt an Wirkstoff (A) (Wirkstoff-Konzentration 30 %, 6-Wochen-Wert, 40°C): 260 mg/mL
Gesamt-Zersetzung [21]: 1,20%
Zersetzung durch Oxidation [21]: 0,56%
Gehalt an Wirkstoff (A) [21]: 269 mg/mL
oxidative Zersetzung (hydrochloride in aqueous solution, over a long period): praktisch unverändert
